Legend:
RhlR [1] = target: T1, RhlR (Pseudomonas aeruginosa, UniProt P54292); test: E. coli RhlR reporter; format: cell-based; conditions: E. coli RhlR reporter strain; for EC50: dose-response; for Max. RhlR Activation: efficacy
RhlR [2] = target: T1, RhlR; test: P. aeruginosa PAO-JP2 RhlR reporter; format: cell-based; conditions: for EC50 / Max. RhlR Activation: P. aeruginosa RhlR reporter strain; for EC50: dose-response; for Max. RhlR Activation: efficacy

T1 sequence (P54292 whole entry): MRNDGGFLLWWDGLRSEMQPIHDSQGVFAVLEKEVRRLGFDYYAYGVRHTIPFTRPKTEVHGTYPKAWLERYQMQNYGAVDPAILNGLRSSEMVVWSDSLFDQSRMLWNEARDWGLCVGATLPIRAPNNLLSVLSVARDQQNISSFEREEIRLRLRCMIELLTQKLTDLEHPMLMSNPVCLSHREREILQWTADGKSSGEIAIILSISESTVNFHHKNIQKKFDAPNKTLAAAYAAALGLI

For `CC(C)CC(=O)N[C@H]1CCOC1=O` [Compound 7, isovaleryl HL], the EC50 (RhlR [1]) was 1020 nM, the “Max. RhlR Activation” value (RhlR [1]) was 110% and the EC50 (RhlR [2]) was 1420 nM. The “Max. RhlR Activation” value (RhlR [2]) was 94%.
`CCCC(=O)N[C@H]1CCOC1=O` [BHL, N-butyryl HL] was tested, and the EC50 (RhlR [1]) was 8950 nM, the “Max. RhlR Activation” value (RhlR [1]) was 100% and the EC50 (RhlR [2]) was 8080 nM. The “Max. RhlR Activation” value (RhlR [2]) was 100%.
In the case of `O=C(NC1CCOC1=O)C1CCC1` (centres unmarked) [Compound 17, cyclobutyl HL], the EC50 (RhlR [1]) is reported as 1780 nM, the “Max. RhlR Activation” value (RhlR [1]) is reported as 100% and the EC50 (RhlR [2]) is reported as 1410 nM. For the same molecule, the “Max. RhlR Activation” value (RhlR [2]) was 96%.
With `CC(C)CC(=O)NC1CCSC1=O` (centres unmarked) [Compound 37, isovaryl homocysteine thiolactone] the EC50 (RhlR [1]) was 463 nM, the “Max. RhlR Activation” value (RhlR [1]) was 93% and the EC50 (RhlR [2]) was 2580 nM. For the same molecule, the “Max. RhlR Activation” value (RhlR [2]) was 91% and the “fold lower potency in P. aeruginosa relative to E. coli” value (RhlR [2]; ratio of EC50 values in the two RhlR reporters) was ~ 5 fold.
